Measured values as given in patent publication US10106524B2, “2,3,4,5-tetrahydropyridin-6-amine and 3,4-dihydro-2H-pyrrol-5-amine compound inhibitors of beta-secretase” (Janssen Pharmaceutica NV, priority 2015, dated 2018).

Columns and labels:
[1] = target: T1, recombinant BACE1 protein (Homo sapiens, UniProt P56817); experiment: BACE1 biochemical FRET based assay - Method 2; settings: BACE1 0.04 μg/ml, 450 minutes, 20 μM substrate, pH 5.0; for IC50: read-out: Biochemical FRET based assay- Method 2 pIC50 (converted)
T1 construct: recombinant BACE1 protein in a final concentration of 1 μg/ml
From the text: (§1) BACE1 Biochemical FRET Based Assay
(§2) This assay is a Fluorescence Resonance Energy Transfer Assay (FRET) based assay. The substrate for this assay is an APP derived 13 amino acids peptide that contains the ‘Swedish’ Lys-Met/Asn-Leu mutation of the amyloid precursor protein (APP) beta-secretase cleavage site. This substrate also contains two fluorophores: (7-methoxycoumarin-4-yl) acetic acid (Mca) is a fluorescent donor with excitation wavelength at 320 nm and emission at 405 nm and 2,4-Dinitrophenyl (Dnp) is a proprietary quencher acceptor. […] Upon cleavage by BACE1, the fluorophore Mca is separated from the quenching group Dnp, restoring the full fluorescence yield of the donor. The increase in fluorescence is linearly related to the rate of proteolysis.
Briefly in a 384-well format recombinant BACE1 protein in a final concentration of 0.04 μg/ml is incubated for 450 minutes at room temperature with 20 μM substrate in incubation buffer (50 mM Citrate buffer pH 5.0, 0.05% PEG) in the presence of compound or DMSO. Next the amount of proteolysis is directly measured by fluorescence measurement (excitation at 320 nm and emission at 405 nm) at different incubation times (0, 30, 60, 90, 120 and 450 min). For every experiment a time curve (every 30 min between 0 min and 120 min) is used to determine the time where we find the lowest basal signal of the high control. The signal at this time (Tx) is used to subtract from the signal at 450 min. Results are expressed in RFU, as difference between T450 and Tx.
(§3) A best-fit curve is fitted by a minimum sum of squares method to the plot of % Controlmin versus compound concentration. From this an IC50 value (inhibitory concentration causing 50% inhibition of activity) can be obtained.

[2] = system: Abeta 1-42 produced and secreted by SKNBE2 cells expressing hAPP695; experiment: Cellular αLisa assay in SKNBE2 cells - Abeta 42; type: cell-based, human; settings: incubated for 18 hours; for IC50: Homo sapiens, read-out: Cellular αLisa assay in SKNBE2 cells Abeta 42 pIC50 (converted)
Protocol: (§4) Cellular αLisa Assay in SKNBE2 Cells
(§5) In two αLisa assays the levels of Abeta total and Abeta 1-42 produced and secreted into the medium of human neuroblastoma SKNBE2 cells are quantified. The assay is based on the human neuroblastoma SKNBE2 expressing the wild type Amyloid Precursor Protein (hAPP695). The compounds are diluted and added to these cells, incubated for 18 hours and then measurements of Abeta 1-42 and Abeta total are taken. Abeta total and Abeta 1-42 are measured by sandwich αLisa. αLisa is a sandwich assay using biotinylated antibody AbN/25 attached to streptavidin coated beads and antibody Ab4G8 or cAb42/26 conjugated acceptor beads for the detection of Abeta total and Abeta 1-42 respectively. In the presence of Abeta total or Abeta 1-42, the beads come into close proximity. The excitation of the donor beads provokes the release of singlet oxygen molecules that trigger a cascade of energy transfer in the acceptor beads, resulting in light emission. Light emission is measured after 1 hour incubation (excitation at […] and emission at 615 nm).
as §3

[3] = system: Abeta total produced and secreted by SKNBE2 cells expressing hAPP695; experiment: Cellular αLisa assay in SKNBE2 cells - Abeta total; type: cell-based; settings: Homo sapiens, incubated for 18 hours, read-out: Cellular αLisa assay in SKNBE2 cells Abeta total pIC50 (converted)
Protocol: as §4, §5, §3

[4] = target: T2, recombinant BACE2 protein (Homo sapiens, UniProt Q9Y5Z0); experiment: BACE2 biochemical FRET based assay; settings: BACE2 0.4 μg/nil, 450 minutes, 10 μM substrate, pH 5.0; for IC50: read-out: Biochemical FRET based assay pIC50 (BACE2) (converted)
T2 construct: recombinant BACE2 protein in a final concentration of 0.4 μg/nil
T2 sequence (Q9Y5Z0 63-518): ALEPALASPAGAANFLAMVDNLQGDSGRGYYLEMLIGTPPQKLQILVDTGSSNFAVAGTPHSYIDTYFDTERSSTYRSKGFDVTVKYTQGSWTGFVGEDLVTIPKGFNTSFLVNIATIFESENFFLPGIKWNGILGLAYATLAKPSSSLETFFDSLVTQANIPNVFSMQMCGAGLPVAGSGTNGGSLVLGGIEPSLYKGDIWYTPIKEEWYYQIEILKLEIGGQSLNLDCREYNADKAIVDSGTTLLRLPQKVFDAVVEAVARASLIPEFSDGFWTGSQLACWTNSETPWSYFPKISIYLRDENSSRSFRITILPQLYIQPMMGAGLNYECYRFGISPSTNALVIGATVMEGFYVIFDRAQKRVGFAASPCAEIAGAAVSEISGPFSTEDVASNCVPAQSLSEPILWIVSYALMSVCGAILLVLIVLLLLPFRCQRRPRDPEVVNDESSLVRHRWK
From the text: BACE2 Biochemical FRET Based Assay
as §2, with “assay” for “assay is an APP derived 13 amino acids peptide that”, “the beta-secretase,” for “BACE1,”
Briefly in a 384-well format recombinant BACE2 protein in a final concentration of […] is incubated for 450 minutes at room temperature with 10 μM substrate in incubation buffer (50 mM Citrate buffer pH 5.0, 0.05% PEG, no DMSO) in the absence or presence of compound. Next the amount of proteolysis is directly measured by fluorescence measurement at T=0 and T=450 (excitation at 320 nm and emission at 405 nm). Results are expressed in RFU (Relative Fluorescence Units), as difference between T450 and T0.
as §3

[5] = target: T1, recombinant BACE1 protein; experiment: BACE1 biochemical FRET based assay - Method 1; settings: BACE1 1 μg/ml, 120 minutes, 10 μm substrate, pH 5.0; read-out: Biochemical FRET based assay - Method 1 pIC50 (converted)
From the text: as §1, §2
Briefly in a 384-well format recombinant BACE1 protein in a final concentration of 1 μg/ml is incubated for 120 minutes at room temperature with 10 μm substrate in incubation buffer (40 mM Citrate buffer pH 5.0, 0.04% PEG, 4% DMSO) in the absence or presence of compound. Next the amount of proteolysis is directly measured by fluorescence measurement at T=0 and T=120 (excitation at 320 nm and emission at 405 nm). Results are expressed in RFU (Relative Fluorescence Units), as difference between T120 and T0.
as §3

T1 sequence (P56817 46-501): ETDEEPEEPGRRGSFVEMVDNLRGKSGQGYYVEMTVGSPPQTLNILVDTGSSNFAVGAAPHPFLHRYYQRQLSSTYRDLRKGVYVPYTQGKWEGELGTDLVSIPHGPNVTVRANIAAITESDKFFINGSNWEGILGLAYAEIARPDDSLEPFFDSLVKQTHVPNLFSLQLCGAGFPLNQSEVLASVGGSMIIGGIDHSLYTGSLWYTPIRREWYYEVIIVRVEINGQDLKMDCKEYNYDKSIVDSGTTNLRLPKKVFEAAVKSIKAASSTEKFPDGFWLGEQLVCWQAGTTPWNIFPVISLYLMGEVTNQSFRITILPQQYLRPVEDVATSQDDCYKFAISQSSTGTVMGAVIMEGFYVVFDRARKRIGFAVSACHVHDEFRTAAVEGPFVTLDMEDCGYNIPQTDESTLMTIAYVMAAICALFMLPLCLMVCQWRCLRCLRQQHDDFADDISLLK

Molecule `COc1cnc(C(=O)Nc2ccc(F)c(C3(C)N=C(N)CC3C(F)(F)F)c2)cn1` (racemic) [Compound 17, (±)-N-[3-[(2S*,3R*)-5-amino-2-methyl-3-(trifluoromethyl)-3,4-dihydropyrrol-2-yl]-4-fluoro-phenyl]-5-methoxy-pyrazine-2-carboxamide] has an IC50 [1] of 871 nM, an IC50 [2] of 170 nM and an IC50 [3] of 178 nM. The IC50 [4] was > 10000 nM.
`CC1(c2cc(NC(=O)c3ccc(C#N)cn3)ccc2F)N=C(N)CC1C(F)(F)F` (racemic) [Compound 18, (+)-N-[3-[(2S*,3R*)-5-amino-2-methyl-3-(trifluoromethyl)-3,4-dihydropyrrol-2-yl]-4-fluoro-phenyl]-5-cyano-pyridine-2-carboxamide] was tested, and the IC50 [1] was 380 nM, the IC50 [2] was 67.6 nM and the IC50 [3] was 64.6 nM. For the same molecule, the IC50 [4] was 2190 nM.
`C[C@@]1(c2cccc(-c3cncnc3)c2)C[C@@H](C(F)(F)F)CC(N)=N1` [Compound 1, (4R,6S)-6-methyl-6-(3-pyrimidin-5-ylphenyl)-4-(trifluoromethyl)-3,4,5,6-tetrahydropyridin-2-amine] showed an IC50 [5] of 1480 nM, an IC50 [1] of 1020 nM and an IC50 [2] of 295 nM. For the same molecule, the IC50 [3] was 263 nM.
In the case of `C[C@@]1(c2cccc(-c3cncnc3)c2)C[C@H](C(F)(F)F)CC(N)=N1` [Compound 2, (4S,6S)-6-methyl-6-(3-pyrimidin-5-ylphenyl)-4-(trifluoromethyl)-3,4,5,6-tetrahydropyridin-2-amine], the IC50 [5] was 18200 nM, the IC50 [1] was > 10000 nM and the IC50 [2] was 4270 nM. The IC50 [3] was 3980 nM and the IC50 [4] was > 10000 nM.
In the case of `C[C@@]1(c2cccc(NC(=O)c3ncc(Cl)cc3F)c2)C[C@@H](C(F)(F)F)CC(N)=N1` [Compound 5, N-[3-[(2S,4R)-6-amino-2-methyl-4-(trifluoromethyl)-4,5-dihydro-3H-pyridin-2-yl]phenyl]-5-chloro-3-fluoro-pyridine-2-carboxamide], the IC50 [5] was 26.3 nM, the IC50 [1] was 18.2 nM and the IC50 [2] was 24 nM. For the same molecule, the IC50 [3] was 20.9 nM and the IC50 [4] was 20.9 nM.
For `C[C@@]1(c2cccc(NC(=O)c3ncc(Cl)cc3F)c2)C[C@H](C(F)(F)F)CC(N)=N1` [Compound 6, N-[3-[(2S,4S)-6-amino-2-methyl-4-(trifluoromethyl)-4,5-dihydro-3H-pyridin-2-yl]phenyl]-5-chloro-3-fluoro-pyridine-2-carboxamide], the IC50 [5] was 4900 nM, the IC50 [1] was 1620 nM and the IC50 [2] was 2000 nM. The IC50 [3] was 1860 nM and the IC50 [4] was 1150 nM.
`C[C@@]1(c2cccc(NC(=O)c3ccc(C#N)cn3)c2)C[C@@H](C(F)(F)F)CC(N)=N1` [Compound 7, N-[3-[(2S,4R)-6-amino-2-methyl-4-(trifluoromethyl)-4,5-dihydro-3H-pyridin-2-yl]phenyl]-5-cyano-pyridine-2-carboxamide] showed an IC50 [5] of 32.4 nM, an IC50 [1] of 20.4 nM and an IC50 [2] of 24 nM. It also gave an IC50 [3] of 24 nM and an IC50 [4] of 132 nM.
`C[C@@]1(c2cccc(NC(=O)c3ccc(C#N)cn3)c2)C[C@H](C(F)(F)F)CC(N)=N1` [Compound 8, N-[3-[(2S,4S)-6-amino-2-methyl-4-(trifluoromethyl)-4,5-dihydro-3H-pyridin-2-yl]phenyl]-5-cyano-pyridine-2-carboxamide] gave an IC50 [5] of 9770 nM, an IC50 [1] of 6760 nM and an IC50 [2] of 2290 nM. For the same molecule, the IC50 [3] was 2510 nM and the IC50 [4] was > 10000 nM.
Work on `COc1cnc(C(=O)Nc2ccc(F)c([C@]3(C)C[C@@H](C(F)(F)F)CC(N)=N3)c2)cn1` [Compound 9, N-{3-[(2S,4R)-6-amino-2-methyl-4-(trifluoromethyl)-4,5-dihydro-3H-pyridin-2-yl]-4-fluoro-phenyl]-5-methoxy-pyrazine-2-carboxamide] yielded an IC50 [5] of 38.9 nM, an IC50 [1] of 7.59 nM and an IC50 [2] of 5.25 nM. The IC50 [3] was 5.89 nM and the IC50 [4] was 67.6 nM.
Molecule `C[C@@]1(c2cc(NC(=O)c3ccc(Cl)cn3)ccc2F)C[C@@H](C(F)(F)F)CC(N)=N1` [Compound 11] has an IC50 [5] of 30.9 nM, an IC50 [1] of 2.63 nM and an IC50 [2] of 2.34 nM. The IC50 [3] was 2 nM and the IC50 [4] was 4.07 nM.
With `CC1(c2cc(-c3cncnc3)ccc2F)N=C(N)CC1C(F)(F)F` (centres unmarked) [Compound 14] the IC50 [1] was > 10000 nM, the IC50 [2] was 8910 nM and the IC50 [3] was 8320 nM. For the same molecule, the IC50 [4] was > 10000 nM.
`C[C@]1(c2cc(NC(=O)c3ccc(Cl)cn3)ccc2F)N=C(N)C[C@H]1C(F)(F)F` [Compound 19, N-[3-[(2S,3R)-5-amino-2-methyl-3-(trifluoromethyl)-3,4-dihydropyrrol-2-yl]-4-fluoro-phenyl]-5-chloro-pyridine-2-carboxamide] gave an IC50 [1] of 302 nM, an IC50 [2] of 61.7 nM and an IC50 [3] of 81.3 nM. For the same molecule, the IC50 [4] was 692 nM.
For `C[C@@]1(c2cc(NC(=O)c3ccc(Cl)cn3)ccc2F)N=C(N)C[C@@H]1C(F)(F)F` [Compound 20, N-[3-[(2R,3S)-5-amino-2-methyl-3-(trifluoromethyl)-3,4-dihydropyrrol-2-yl]-4-fluoro-phenyl]-5-chloro-pyridine-2-carboxamide], the IC50 [1] was > 10000 nM, the IC50 [2] was 8910 nM and the IC50 [3] was 8320 nM. For the same molecule, the IC50 [4] was > 10000 nM.
With “(±)-N-[3-[(2S*,3R*)-5-amino-2-methyl-3-(trifluoromethyl)-3,4-dihydropyrrol-2-yl]-4-fluoro-phenyl]-5-(2,2,2-trifluoroethoxy)pyrazine-2-carboxamide [Compound 24]” the “Biochemical FRET based assay- Method 2 pIC50” value [1] was 6.10, the “Cellular αLisa assay in SKNBE2 cells Abeta 42 pIC50” value [2] was 6.38 and the “Biochemical FRET based assay pIC50 (BACE2)” value [4] was <5.
